The values that follow come from patent US8846715B2, “(2S,3R)-N-(2((3-pyridinyl)methyl)-1-azabicyclo[2.2.2]oct-3-yl)benzofuran-2-carboxamide novel salt forms, and methods of use thereof” (Targacept, Inc., priority 2007, dated 2014).

pKi: −log10 of the molar value. “Also recorded” adds a separate entry of the source.

Data set [1] is described as follows: Water solubility (salt screening). The class given is physicochemical. The procedure: Thermodynamic Aqueous Solubility by HPLC
The suspension was equilibrated at 25° C. for 24 h, and then the pH was measured. The suspension was then filtered through a glass fiber C filter into a 96 well plate. The filtrate was then diluted by a factor of 101. Quantitation was by HPLC with reference to a standard solution of approximately 0.1 mg/mL in DMSO. Different volumes of the standard, diluted and undiluted sample solutions were injected. The solubility was calculated using the peak areas determined by integration of the peak found at the same retention time as the principal peak in the standard injection. If there was sufficient solid in the filter plate, the XRPD was collected.

The nature of data set [2]: Hygroscopicity (salt screening). The class given is physicochemical. The procedure:
Sorption isotherms were determined on either or both of two instruments. Some were experiments were run using a VTI Corporation SGA-100 moisture sorption analyzer, controlled by VTI FlowSystem 4 software. The sample temperature was maintained at 25° C. with the aid of a Polyscience constant temperature bath. The humidity was controlled by mixing streams of dry and wet nitrogen. The weight change as a function of % RH was monitored using a Cahn Digital Recording Balance D-200 with an accuracy of +/−0.0001 g.
Typically a 10-20 mg sample was placed on the tared balance pan under ambient conditions. The sample was dried at 50° C. for 1 h. The standard adsorption isotherm was performed at 25° C. at 5% RH intervals over a 5-95% RH range, and the desorption isotherm was similarly done at 25° C. at 5% RH intervals over a 95-5% RH range. Sample equilibration criteria included 0.0100 wt % in 5 min or a maximum equilibration time of 180 min for each % RH data point.
Some sorption isotherms were obtained using a Hiden IGASorp moisture sorption analyser, controlled by CFRSorp software. The sample temperature was maintained at 25° C. by a Huber re-circulating water bath. The humidity was controlled by mixing streams of dry and wet nitrogen, with a total flow rate of 250 mL/min. The relative humidity was measured by a calibrated Vaisala RH probe (dynamic range of 0-95% RH), located near the sample. The weight change, (mass relaxation) of the sample as a function of % RH was constantly monitored by the microbalance (accuracy ±0.001 mg). Typically 10-20 mg of sample was placed in a tared mesh stainless steel basket under ambient conditions. The sample was loaded and unloaded at 40% RH and 25° C. (typical ambient conditions). A moisture sorption isotherm was performed as outlined below (2 scans giving 1 complete cycle). The standard isotherm was performed at 25° C. at 10% RH intervals over a 0-90% RH range.
The software uses a least squares minimization procedure together with a model of the mass relaxation, to predict an asymptotic value. The measured mass relaxation value must be within 5% of that predicted by the software, before the next % RH value is selected. The minimum equilibration time was set to 1 h and the maximum to 4 h. Typically, samples were recovered after completion of the isotherm and re-analyzed by XRPD.

Data set [3] is described as follows: Solid state stability by XRPD, 40° C./75% RH. The class given is physicochemical. Particulars: 1 week at 40° C./75% RH. The procedure:
X-Ray Powder Diffraction patterns were collected either or both of two instruments. Some were collected on a Siemens D5000 diffractometer using CuKα radiation (40 kV, 40 mA), 0-0 goniometer, V20 divergence and receiving slits, a graphite secondary monochromator and a scintillation counter. The instrument was performance checked using a certified Corundum standard (NIST 1976). Samples run under ambient conditions were prepared as flat plate specimens using powder as received. Approximately 35 mg of the sample was gently packed into a cavity cut into polished, zero-background (510) silicon wafer. The sample was rotated in its own plane during analysis, scanning from 2° to 42° in steps of 0.05° at 4 seconds per step, using CuKα1 (λ=1.5406 Å).
The tosylate salt, specifically the crystalline mono salt, was confirmed and the diffraction pattern is shown in FIG. 14 using CuKα radiation (40 kV, 40 mA), 0-0 goniometer, V20 divergence and receiving slits, a graphite secondary monochromator, and a scintillation counter. […] Likely, the change is due to a more hydrated form.

In the next data set the target is α4β2 NNRs (Homo sapiens, UniProt P17787+P43681). As to the kind of experiment: Binding to α4β2 NNRs.
α4β2 NNRs, sequence (P43681 29-627 limits assumed): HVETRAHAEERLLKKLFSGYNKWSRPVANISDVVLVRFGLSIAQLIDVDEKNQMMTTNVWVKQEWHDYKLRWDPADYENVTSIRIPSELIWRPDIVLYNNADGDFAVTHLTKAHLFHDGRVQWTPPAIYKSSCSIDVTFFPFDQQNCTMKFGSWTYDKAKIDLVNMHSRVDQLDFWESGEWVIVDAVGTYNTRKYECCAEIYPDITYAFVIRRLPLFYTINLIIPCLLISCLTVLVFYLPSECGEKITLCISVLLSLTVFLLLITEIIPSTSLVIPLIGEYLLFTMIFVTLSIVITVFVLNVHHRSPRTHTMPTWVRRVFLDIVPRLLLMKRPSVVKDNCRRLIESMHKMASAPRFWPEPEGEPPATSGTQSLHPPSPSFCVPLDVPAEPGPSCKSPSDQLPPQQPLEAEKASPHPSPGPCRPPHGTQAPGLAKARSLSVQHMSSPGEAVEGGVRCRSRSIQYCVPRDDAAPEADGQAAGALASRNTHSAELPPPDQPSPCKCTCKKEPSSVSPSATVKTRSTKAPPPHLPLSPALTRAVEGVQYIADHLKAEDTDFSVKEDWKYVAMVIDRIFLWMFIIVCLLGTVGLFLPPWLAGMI
α4β2 NNRs, sequence (P17787 26-502): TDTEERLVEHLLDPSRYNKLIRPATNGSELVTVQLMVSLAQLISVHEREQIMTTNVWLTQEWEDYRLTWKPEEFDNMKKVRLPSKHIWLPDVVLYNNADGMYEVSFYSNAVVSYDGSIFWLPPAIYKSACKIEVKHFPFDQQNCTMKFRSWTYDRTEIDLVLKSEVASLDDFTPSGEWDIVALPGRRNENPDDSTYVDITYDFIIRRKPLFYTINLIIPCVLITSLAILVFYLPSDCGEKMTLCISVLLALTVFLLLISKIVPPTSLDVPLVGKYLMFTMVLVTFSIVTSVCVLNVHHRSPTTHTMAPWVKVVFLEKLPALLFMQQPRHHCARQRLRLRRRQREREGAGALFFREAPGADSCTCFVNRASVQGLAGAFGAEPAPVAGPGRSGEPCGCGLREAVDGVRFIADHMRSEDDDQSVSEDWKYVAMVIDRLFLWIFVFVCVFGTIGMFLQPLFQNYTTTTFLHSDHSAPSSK
The target in a further data set is T1, M1 muscarinic receptors (Homo sapiens, UniProt P11229).
T1 sequence (P11229 1-460): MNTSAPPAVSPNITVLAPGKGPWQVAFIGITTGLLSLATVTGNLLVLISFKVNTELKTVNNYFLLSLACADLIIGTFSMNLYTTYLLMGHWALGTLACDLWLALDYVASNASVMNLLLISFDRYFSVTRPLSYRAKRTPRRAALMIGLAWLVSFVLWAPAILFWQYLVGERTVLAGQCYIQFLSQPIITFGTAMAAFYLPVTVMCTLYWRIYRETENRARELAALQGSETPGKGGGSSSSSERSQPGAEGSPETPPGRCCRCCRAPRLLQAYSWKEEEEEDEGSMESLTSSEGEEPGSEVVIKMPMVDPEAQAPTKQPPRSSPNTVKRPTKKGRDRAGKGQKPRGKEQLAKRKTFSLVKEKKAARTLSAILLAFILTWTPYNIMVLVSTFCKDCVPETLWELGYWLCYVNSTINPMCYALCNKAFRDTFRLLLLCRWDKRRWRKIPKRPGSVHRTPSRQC
As to the kind of experiment: Competitive binding inhibition, M1 muscarinic.

A further data set deals with T2, M2 muscarinic receptors (Homo sapiens, UniProt P08172).
T2 sequence (P08172 1-466): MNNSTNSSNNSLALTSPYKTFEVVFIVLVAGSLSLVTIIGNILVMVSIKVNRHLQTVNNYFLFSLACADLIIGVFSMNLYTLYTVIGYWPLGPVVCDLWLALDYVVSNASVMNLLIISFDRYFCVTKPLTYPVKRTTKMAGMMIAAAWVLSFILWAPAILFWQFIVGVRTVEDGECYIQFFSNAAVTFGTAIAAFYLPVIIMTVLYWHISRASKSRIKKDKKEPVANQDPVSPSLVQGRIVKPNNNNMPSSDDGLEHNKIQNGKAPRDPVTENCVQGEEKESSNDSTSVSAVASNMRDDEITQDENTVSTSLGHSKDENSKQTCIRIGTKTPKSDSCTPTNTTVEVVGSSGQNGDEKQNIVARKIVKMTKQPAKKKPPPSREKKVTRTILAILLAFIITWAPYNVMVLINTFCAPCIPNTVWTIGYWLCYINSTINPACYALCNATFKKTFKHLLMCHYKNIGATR
As to the kind of experiment: Competitive binding inhibition, M2 muscarinic.

For data set [4], the system named is rats. Briefly: Object recognition (OR) paradigm. The class given is in vivo.
For data set [5], the system named is rats. As to the kind of experiment: MK-801 induced deficits in the OR task. The class given is in vivo. Conditions: 0.3 and 1 mg/kg i.p. (FIGS. 5A, 5B).
Data set [6] in a line: Radial arm maze (RAM) paradigm. Particulars: p.o. 30 minutes prior to daily session, 0.3 mg/kg, second week (FIG. 7). The class given is in vivo. The source says:
FIG. 7 illustrates an assessment of cognitive effects in a radial arm maze (RAM) paradigm.

The nature of data set [7]: Pre-pulse inhibition (PPI), apomorphine-induced deficits. Particulars: subcutaneous pretreatment (FIG. 9). The class given is in vivo.
A further data set has as its target human α7 NNRs (Homo sapiens, UniProt P36544). Briefly: cell-based. Conditions: read-out: E. (Emax) of ACh response.
The target in the next data set is T3, mouse 5HT3 receptor (Mus musculus, UniProt P23979).
T3 sequence (P23979 24-489): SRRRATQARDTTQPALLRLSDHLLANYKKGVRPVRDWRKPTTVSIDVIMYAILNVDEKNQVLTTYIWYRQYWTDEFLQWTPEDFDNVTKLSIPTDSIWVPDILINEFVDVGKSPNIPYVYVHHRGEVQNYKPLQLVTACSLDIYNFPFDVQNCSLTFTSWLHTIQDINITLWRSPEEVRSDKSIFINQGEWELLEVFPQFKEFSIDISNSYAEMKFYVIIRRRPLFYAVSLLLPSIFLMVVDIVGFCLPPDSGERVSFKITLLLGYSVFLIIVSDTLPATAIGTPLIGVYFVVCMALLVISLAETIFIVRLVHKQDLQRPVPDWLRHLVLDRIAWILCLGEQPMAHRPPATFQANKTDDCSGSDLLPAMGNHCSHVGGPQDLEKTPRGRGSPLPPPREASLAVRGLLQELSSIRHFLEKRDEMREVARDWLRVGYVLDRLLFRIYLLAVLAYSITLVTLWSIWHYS
As to the kind of experiment: Radioligand binding at mouse 5HT3 receptor. Conditions: read-out: Inhibition of radioligand binding at mouse 5HT3 receptor.

The target of another data set is T4, human 5HT3 receptor (Homo sapiens, UniProt P46098).
T4 sequence (P46098 24-478): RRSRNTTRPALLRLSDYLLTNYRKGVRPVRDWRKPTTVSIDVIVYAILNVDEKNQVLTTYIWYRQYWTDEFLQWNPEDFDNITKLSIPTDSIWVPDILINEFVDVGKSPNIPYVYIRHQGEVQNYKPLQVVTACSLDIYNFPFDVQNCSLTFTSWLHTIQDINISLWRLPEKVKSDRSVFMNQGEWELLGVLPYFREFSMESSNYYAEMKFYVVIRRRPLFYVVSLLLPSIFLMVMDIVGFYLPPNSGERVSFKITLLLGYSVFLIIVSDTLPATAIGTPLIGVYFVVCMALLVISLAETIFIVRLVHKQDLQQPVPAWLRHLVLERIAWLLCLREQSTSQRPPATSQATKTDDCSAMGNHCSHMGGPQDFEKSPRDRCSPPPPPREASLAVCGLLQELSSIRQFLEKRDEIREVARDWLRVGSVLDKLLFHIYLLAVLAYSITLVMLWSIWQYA
As to the kind of experiment: Radioligand binding at human 5HT3 receptor. Particulars: read-out: Inhibition of radioligand binding at human 5HT3 receptor.

The target in a further data set is human α4β2 sub-type (Homo sapiens, UniProt P17787+P43681). As to the kind of experiment: Electrophysiology, human α4β2 in Xenopus oocytes.
human α4β2 sub-type, sequence (P43681 29-627 limits assumed): as the sequence (P43681 29-627 limits assumed) above
human α4β2 sub-type, sequence (P17787 26-502): as the sequence (P17787 26-502) above
For data set [8], the target named is rat α7 NNRs stably expressed in GH4C1 (mammalian) cells (Rattus norvegicus, UniProt Q05941). Briefly: Patch clamp electrophysiology, rat α7 NNR in GH4C1 cells. (In patch-clamp work, channel activity is measured electrically.)
rat α7 NNRs stably expressed in GH4C1 (mammalian) cells, sequence (Q05941 23-502): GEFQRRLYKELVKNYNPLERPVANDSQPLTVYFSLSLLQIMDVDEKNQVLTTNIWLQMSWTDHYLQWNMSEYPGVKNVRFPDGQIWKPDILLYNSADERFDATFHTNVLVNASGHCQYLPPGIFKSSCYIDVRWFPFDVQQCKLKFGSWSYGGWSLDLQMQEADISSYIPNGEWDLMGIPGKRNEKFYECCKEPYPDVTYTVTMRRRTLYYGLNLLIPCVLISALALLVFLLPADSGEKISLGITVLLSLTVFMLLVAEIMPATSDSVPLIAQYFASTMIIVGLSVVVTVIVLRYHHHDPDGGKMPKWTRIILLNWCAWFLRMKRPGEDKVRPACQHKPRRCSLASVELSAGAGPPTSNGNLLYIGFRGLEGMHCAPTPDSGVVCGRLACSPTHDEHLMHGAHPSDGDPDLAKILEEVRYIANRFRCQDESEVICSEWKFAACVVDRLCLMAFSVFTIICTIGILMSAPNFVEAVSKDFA
Protocol: Electrophysiological measurement of α7 NNR response were taken in two expression systems: rat α7 NNR in mammalian GH4C1 cells and human α7 NNR in Xenopus oocytes.
Electrophysiological measurements of agonist activity were achieved using the Dynaflow rapid perfusion system and patch clamp using this GH4C1 cell expression system.
Whole-cell currents recorded with an Axopatch 700A amplifier were filtered at 1 kHz and sampled at 5 kHz by a PCI card (National Instrument). […] Cells were recorded at room temperature in the following extracellular medium: 130 mM NaCl, 5 mM KCl, 2 mM CaCl2, 2 mM MgCl2, 10 mM HEPES, adjusted to pH 7.4 with aqueous NaOH. […] Under these conditions, the macro-current activity obtained with NNR whole-cell recording lasts up to 60 min when elicited with a 1000 μM acetylcholine (ACh) concentration.
Cell handling procedures were adopted from Cellectricon application notes for Dynaflow. Briefly, after removal from the incubator, cells were washed thoroughly three times with recording medium and placed on the stage of a inverted Zeiss microscope. On average 5 min was necessary before the whole-cell recording configuration was established. To avoid modification of the cell conditions, a single cell was recorded per single load of cells into Dynaflow silicon chip. […] Cells were held at −60 mV throughout the experiment. […]
Data set [9] concerns rats. Particulars: 0.3 and 1.0 mg/kg s.c., apomorphine 1.0 mg/kg (FIG. 8).
Protocol: The reversal of apomorphine-induced locomotor activity (APO LOCO) assay was performed in accord with the description of Roux et al., Curr.

human α7 NNRs, sequence (P36544 23-502): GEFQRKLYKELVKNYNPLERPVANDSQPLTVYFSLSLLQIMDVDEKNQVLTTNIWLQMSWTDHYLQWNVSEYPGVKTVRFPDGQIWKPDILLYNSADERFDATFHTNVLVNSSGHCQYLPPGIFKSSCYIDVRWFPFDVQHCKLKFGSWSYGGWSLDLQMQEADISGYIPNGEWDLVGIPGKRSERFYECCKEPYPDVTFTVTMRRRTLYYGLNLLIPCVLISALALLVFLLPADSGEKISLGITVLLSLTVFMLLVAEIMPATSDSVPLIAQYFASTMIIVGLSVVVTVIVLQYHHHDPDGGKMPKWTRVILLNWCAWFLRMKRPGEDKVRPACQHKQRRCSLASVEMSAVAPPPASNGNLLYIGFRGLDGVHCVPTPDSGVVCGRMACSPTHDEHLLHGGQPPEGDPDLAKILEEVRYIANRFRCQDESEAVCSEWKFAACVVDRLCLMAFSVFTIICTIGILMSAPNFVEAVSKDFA
Protocol for human α7 NNRs: Mature (>9 cm) female Xenopus laevis African toads (Nasco, Ft. Atkinson, Wis.) were used as a source of oocytes. Prior to surgery, the toads were anesthetized by placing the animal in a 1.5 g/L solution of 3-aminobenzoic acid ethyl ester for 30 min. Oocytes were removed from an incision made in the abdomen.
Subsequently, stage 5 oocytes were isolated and injected with 50 mL (5-20 ng) each of the human α7 cRNA. Recordings were made 2 to 7 days after injection. Fresh acetylcholine (ACh) stock solutions were made daily in Ringer's solution.
Experiments were conducted using OpusXpress 6000A (Axon Instruments, Union City Calif.). […]
Each oocyte received an initial control application of ACh, then an experimental drug application, and then a follow-up control application of ACh (300 μM). Responses to experimental drug applications were calculated relative to the preceding ACh control responses in order to normalize the data, compensating for the varying levels of channel expression among the oocytes. […] Means and standard errors (SEM) were calculated from the normalized responses of at least four oocytes for each experimental concentration. For concentration-response relations, data derived from net charge analyses were plotted using Kaleidagraph 3.0.2 (Abelbeck Software; Reading, Pa.), and curves were generated from the Hill equation.

Regarding `Cc1ccc(S(=O)(=O)O)cc1.O=C(N[C@@H]1C2CCN(CC2)[C@H]1Cc1cccnc1)c1cc2ccccc2o1` [p-toluenesulfonic acid salt], the Water solubility entry in data set [1] is given as “good water solubility”. In addition, the Hygroscopicity result in data set [2] is reported as “low hygroscopicity”. The “XRPD form after storage” value in [3] was “reveals a change but the sample is still Form 1”.

For `O=C(N[C@@H]1C2CCN(CC2)[C@H]1Cc1cccnc1)c1cc2ccccc2o1.O=C(O)/C=C\C(=O)O` [maleic acid salt], the Water solubility result in [1] is reported as “good water solubility”. Besides, the Hygroscopicity result in data set [2] was “low hygroscopicity”.

As to `Cl.O=C(N[C@@H]1C2CCN(CC2)[C@H]1Cc1cccnc1)c1cc2ccccc2o1` [hydrochloric acid salt], the Water solubility entry in data set [1] is given as “good water solubility”. Besides, in [2], the Hygroscopicity result is on record as “low hygroscopicity”.

Take `O=C(N[C@@H]1C2CCN(CC2)[C@H]1Cc1cccnc1)c1cc2ccccc2o1.O=P(O)(O)O` [phosphoric acid salt]: the Water solubility result in data set [1] is “good water solubility”. In addition, in [2], the Hygroscopicity entry is reported as “low hygroscopicity”.

Broadly, the pKi is the negative decadic logarithm of the Ki, by convention in mol/L. Read a high pKi as a low Ki. For orientation: Emax means the greatest response seen or fitted, relative to the assay's reference. Broadly, the inhibition is the change of the read-out against control, counted positive when it falls. `O=C(N[C@@H]1C2CCN(CC2)[C@H]1Cc1cccnc1)c1cc2ccccc2o1` (single isomer, unassigned) [Compound A] showed a negative-log Ki (pKi) at α4β2 NNRs of less than 5.70. Besides, the “Interaction with M1 muscarinic receptors” value at M1 muscarinic receptors is recorded as “minimal to no interaction”. Besides, on M2 muscarinic receptors, the “Interaction with M2 muscarinic receptors” value is listed as “minimal to no interaction”. The “Duration of cognitive effects in OR” value in the data set with rats [4] (0.3 mg/kg orally (FIG. 6)) is on record as “at least 18 hours”. Also, in the data set on rats [4] (0.3 mg/kg p.o. sub-acute, 30 min, 2 h, 6 h and 18 h after final administration), the “Time investigating novel versus familiar object” value is recorded as “significantly (P<0.05) more time investigating object B (novel) than object A (familiar)”. In the data set on rats [4] (rats, 0.3 and 1 mg/kg i.p. (FIG. 3)), the “Cognitive effects in object recognition, i.p.” value is given as “potent activity”. The “Cognitive effects in object recognition, p.o.” value with rats [4] (rats, p.o., 0.3-10 mg/kg (FIG. 4)) is reported as “potent activity; also recorded: activity across a wide dose range”. The “Effect on MK-801 induced deficits in the OR task” value in the data set with rats [5] was “tends to reverse MK-801 induced deficits”. Also, the “Performance in radial arm maze (working memory)” value in [6] is reported as “significantly increased the number of correct choices prior to error”. For the same compound, the “Effect on apomorphine-induced prepulse inhibition deficits” value in [7] is reported as “displays effectiveness”. Also, the Water solubility result in [1] was “very limited water solubility”. The Emax was determined as 100% at human α7 NNRs and 93% in [8] (GH4-C1, read-out: Emax relative to acetylcholine (ACh)). The results for the inhibition at 10 µM on mouse 5HT3 receptor and on human 5HT3 receptor were 59% and 25%, respectively. Besides, the “Activation of human α4β2” value at human α4β2 sub-type is on record as “no detectable activation”. The “Decreases in subsequent control responses to ACh at α4β2” value at human α4β2 sub-type is “no significant decreases”. Besides, the “Functional activity at the α7 subtype” value in [8] (rat α7 in GH4C1 cells, FIGS. 1A.2 and 1B) is “potent agonism throughout the concentration range of 1-50 nM”. In the data set with rats [9], the “Effect on apomorphine-induced locomotor hyperactivity” value is “displays effectiveness in reversing apomorphine-induced locomotor activity”.
